From ChEMBL document CHEMBL1201862, “PubChem BioAssay data set” (2004)
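Method: 48-hour compound exposure of cells in 96-well plates, five concentrations, linear interpolation of endpoints. GI50 = concentration required for 50% inhibition of growth.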 Active and inactive are the calls of the source. No stated cut-off is given here; in the data, active = GI50 up to about 1.1 µM and inactive = higher.

Columns and labels:
Test in all cases: growth of human tumour cells (NCI), 48 h
NCI-H23 = test system: NCI-H23
T47D = test system: T47D
K562 = test system: K562
SK-MEL-28 = test system: SK-MEL-28
SW-620 = test system: SW-620
IGROV-1 = test system: IGROV-1
RXF 393 = test system: RXF 393
HCT-15 = test system: HCT-15
SR = test system: SR
M14 = test system: M14
SK-OV-3 = test system: SK-OV-3
HOP-62 = test system: HOP-62
SK-MEL-2 = test system: SK-MEL-2
HL-60 = test system: HL-60
CAKI-1 = test system: CAKI-1
SF-295 = test system: SF-295
Malme-3M = test system: Malme-3M
NCI/ADR-RES = test system: NCI/ADR-RES
ACHN = test system: ACHN
HOP-92 = test system: HOP-92

Measured: GI50

CC(C)(C)[Si](C)(C)OCC1OC(n2cnc3c(N)ncnc32)CC1O (stereo not given)
inactive: NCI-H23 79.4 µM | T47D 41.6 µM | K562 21.8 µM | SK-MEL-28 > 100 µM | SW-620 > 100 µM | IGROV-1 76.6 µM | RXF 393 20.6 µM | SR 34.8 µM | M14 44.2 µM | SK-OV-3 81.5 µM | HOP-62 92.7 µM | SK-MEL-2 56.1 µM | HL-60 20 µM | CAKI-1 86.9 µM | SF-295 > 100 µM | Malme-3M > 100 µM | NCI/ADR-RES 40.4 µM
81.8 µM: HCT-15

Cc1ccc2c(c1)C(=O)N(N(C)C)CC(=O)N2
inactive: NCI-H23 > 100 µM | K562 > 100 µM | SK-MEL-28 > 100 µM | SW-620 > 100 µM | IGROV-1 > 100 µM | SR > 100 µM | M14 > 100 µM | SK-OV-3 > 100 µM | HOP-62 > 100 µM | SK-MEL-2 > 100 µM | HL-60 > 100 µM | CAKI-1 > 100 µM | ACHN > 100 µM | SF-295 > 100 µM | HOP-92 > 100 µM | Malme-3M > 100 µM
> 100 µM: HCT-15

C[n+]1c(-c2ccc(/C=N/Nc3n[nH]c(=S)n3N/N=C/c3ccc(-c4cn5ccccc5[n+]4C)cc3)cc2)cn2ccccc21
inactive: T47D > 100 µM | K562 > 100 µM | SK-MEL-28 > 100 µM | SW-620 > 100 µM | IGROV-1 > 100 µM | SR > 100 µM | M14 > 100 µM | SK-OV-3 > 100 µM | HOP-62 > 100 µM | HL-60 > 100 µM | ACHN > 100 µM | SF-295 > 100 µM | NCI/ADR-RES > 100 µM
> 100 µM: HCT-15

Cc1cccc(C(C)C)c1NC(=O)CC1Sc2ccccc2NC1=O (stereo not given)
inactive: NCI-H23 > 100 µM | K562 33.1 µM | SK-MEL-28 83.6 µM | SW-620 76.4 µM | IGROV-1 > 100 µM | RXF 393 87.3 µM | SR 41 µM | M14 50.1 µM | SK-OV-3 > 100 µM | HOP-62 > 100 µM | SK-MEL-2 42.5 µM | HL-60 46.9 µM | CAKI-1 > 100 µM | ACHN > 100 µM | SF-295 40.2 µM | HOP-92 37.8 µM | Malme-3M 31.8 µM
70.1 µM: HCT-15

CNC(=O)CNC(=O)CCC(=O)N(C)C
inactive: NCI-H23 > 100 µM | T47D > 100 µM | K562 > 100 µM | SK-MEL-28 > 100 µM | SW-620 > 100 µM | IGROV-1 > 100 µM | M14 > 100 µM | SK-OV-3 > 100 µM | HOP-62 > 100 µM | SK-MEL-2 > 100 µM | HL-60 > 100 µM | CAKI-1 > 100 µM | ACHN > 100 µM | SF-295 > 100 µM | HOP-92 > 100 µM | Malme-3M > 100 µM | NCI/ADR-RES > 100 µM
> 100 µM: HCT-15
